Laboratory results as given in paper PMC5133702, “Liver-specific ATP-citrate lyase inhibition by bempedoic acid decreases LDL-C and attenuates atherosclerosis” (Nature Communications, 2016).

Target: T1, ATP-citrate lyase (ACL) (Homo sapiens, UniProt P53396)
T1 construct: gene ACLY; recombinant human ACL
T1 sequence (P53396 1-1101): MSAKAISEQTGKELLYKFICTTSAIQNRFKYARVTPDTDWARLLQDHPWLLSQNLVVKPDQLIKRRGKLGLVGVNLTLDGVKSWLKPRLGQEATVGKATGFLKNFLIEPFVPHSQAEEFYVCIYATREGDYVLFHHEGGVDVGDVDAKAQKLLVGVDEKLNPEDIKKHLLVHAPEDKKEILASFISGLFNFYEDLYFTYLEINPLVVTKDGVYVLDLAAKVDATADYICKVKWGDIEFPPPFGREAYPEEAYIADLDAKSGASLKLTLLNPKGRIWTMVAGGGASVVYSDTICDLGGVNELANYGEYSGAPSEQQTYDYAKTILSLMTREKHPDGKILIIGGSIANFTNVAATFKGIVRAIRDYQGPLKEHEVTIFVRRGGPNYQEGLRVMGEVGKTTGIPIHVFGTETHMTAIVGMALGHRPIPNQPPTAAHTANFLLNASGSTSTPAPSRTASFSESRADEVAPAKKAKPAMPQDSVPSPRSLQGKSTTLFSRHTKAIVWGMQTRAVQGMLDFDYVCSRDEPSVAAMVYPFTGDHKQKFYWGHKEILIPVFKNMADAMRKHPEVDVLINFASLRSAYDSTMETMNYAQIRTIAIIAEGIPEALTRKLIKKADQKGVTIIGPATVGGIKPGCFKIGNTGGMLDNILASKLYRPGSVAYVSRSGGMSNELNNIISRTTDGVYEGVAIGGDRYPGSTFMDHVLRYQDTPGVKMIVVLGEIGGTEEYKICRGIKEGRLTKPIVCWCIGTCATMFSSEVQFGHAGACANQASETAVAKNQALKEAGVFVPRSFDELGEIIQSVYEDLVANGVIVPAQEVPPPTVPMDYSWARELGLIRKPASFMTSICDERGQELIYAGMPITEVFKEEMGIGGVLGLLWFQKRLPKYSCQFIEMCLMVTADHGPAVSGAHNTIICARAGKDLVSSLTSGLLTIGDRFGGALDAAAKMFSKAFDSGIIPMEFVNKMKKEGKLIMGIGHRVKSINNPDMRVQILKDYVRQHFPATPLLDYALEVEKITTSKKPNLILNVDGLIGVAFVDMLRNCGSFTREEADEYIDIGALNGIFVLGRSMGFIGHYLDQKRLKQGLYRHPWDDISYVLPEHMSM
Assay: cell-free radiometric assay, […]-citrate to […]-acetyl-CoA, enzyme kinetics
Format: biochemical

Ki: 2000 nM
SMILES: CC(C)(CCCCCC(O)CCCCCC(C)(C)C(=O)SCCNC(=O)CCNC(=O)[C@H](O)C(C)(C)COP(=O)(O)OP(=O)(O)OC[C@H]1O[C@@H](n2cnc3c(N)ncnc32)[C@H](O)[C@@H]1OP(=O)(O)O)C(=O)O (stereo partly shown) [ETC-1002-CoA]
